According to paper PMC3833878, “In Silico Molecular Comparisons of C. elegans and Mammalian Pharmacology Identify Distinct Targets That Regulate Feeding” (PLoS Biology, 2013):

Columns and labels:
[1] = system: wild-type C. elegans; experiment: Pharyngeal pumping assay; type: in vivo; settings: for EC50: Caenorhabditis elegans, read-out: EC50 of the dose-dependent increase in the pharyngeal pumping rate
Procedure: (§1) Compounds at 1,000× stock concentrations (0.1–10 mM) in DMSO or an equal volume of DMSO were diluted in a suspension of E. coli OP-50 (100 µl of a 3× concentrated overnight culture in LB broth) and absorbed as a single drop onto 3.5 cm plates containing 2.5 ml of NGM agar forming a well-defined lawn of bacteria. For developmental exposures, 20–30 synchronized first larval stage C. elegans derived from alkaline hypochlorite treatment of gravid adults were applied to the preseeded plates and cultured until assay at mid-L4 stage (2 d, 20°C) or as day 1 gravid adults (3 d, 20°C). For naïve adult exposures, synchronized first larval stage animals were cultured on NGM-agar plates seeded with E. coli OP-50 for 3 d at 20°C, then transferred to assay plates, and pumping was assayed 1 to 16 h later. Comparisons between vehicle-treated and compound-treated animals were always performed between animals at the same developmental stage and same exposure time. Pharyngeal pumping was counted by live observation at 115–200× magnification using a stereo microscope and recorded at 10 s intervals using a manually controlled digital cell counter. Alternatively, C. elegans pumping was recorded for longer intervals (30–60 s) using bright-field time-lapse microscopy at 120× magnification with a 20 images per second acquisition rate. The resulting movies were analyzed manually at a playback rate of 10 images per second.
(§2) Significance was determined by one-way ANOVA applying a Dunnett's posttest when comparing multiple treatments to a single control and a Bonferroni posttest when comparing the more than two treatments against one another. For pairwise nonrepeated measured comparisons, a student's t test was used. To express data as a percentage of control, the pumping rates of compound-treated animals were divided by the mean pumping rate of the DMSO-treated wild-type animals measured in the same experiment, unless indicated otherwise. Error bars on the control samples indicate the variation around that mean, which is utilized in all statistical calculations.

[2] = target: Flt-3 receptor; design: method as in PMID 20153646; settings: cited from earlier work
[3] = system: C. elegans; design: method as in earlier work; settings: earlier phenotypic screen ref 11; cited from earlier work
[4] = system: tkr-1(RNAi) C. elegans; experiment: Pharyngeal pumping assay, compound on RNAi-treated animals; type: in vivo
Procedure: Synchronized first larval stage C. elegans were cultured for 3 d at 20°C on a lawn of HT115 E. coli induced with IPTG to express double-stranded RNAi as described.
Compounds at 1,000× stock concentrations (0.1–10 mM) in DMSO or an equal volume of DMSO were diluted in a suspension of E. coli OP-50 (100 µl of a 3× concentrated overnight culture in LB broth) and absorbed as a single drop onto 3.5 cm plates containing 2.5 ml of NGM agar forming a well-defined lawn of bacteria. […] Pharyngeal pumping was counted by live observation at 115–200× magnification using a stereo microscope and recorded at 10 s intervals using a manually controlled digital cell counter. Alternatively, C. elegans pumping was recorded for longer intervals (30–60 s) using bright-field time-lapse microscopy at 120× magnification with a 20 images per second acquisition rate. The resulting movies were analyzed manually at a playback rate of 10 images per second.
Significance was determined by one-way ANOVA applying a Dunnett's posttest when comparing multiple treatments to a single control and a Bonferroni posttest when comparing the more than two treatments against one another. For pairwise nonrepeated measured comparisons, a student's t test was used. […]

[5] = target: tachykinin receptor-2 (Homo sapiens, UniProt P21452); experiment: Cell-based Ca flux assay (Multispan)
Procedure: (§3) Tachykinin, ghrelin, and calcium-sensing receptor activity were measured using a cell-based Ca flux assay by Multispan, Inc. (Hayward, California). Cholescystokinin A and B receptors were assayed for effects on cAMP production, and nicotinic acid receptor activity was measured in a cell-based assay of forskolin-stimulated cAMP production by Multispan, Inc. […], PP2A phosphatase activity assays were performed by CEREP (Celle l'Evescault, France) using PP2A from human erythrocytes. Phospholipase C from Bacillus cereus was assayed by CEREP, Inc. using glycero-phosphatidyl ethanolamine as a substrate, monitoring diacyl glycerol production. Radioligand binding assays for PPAR-α, γ, δ and the androgen receptor were performed by CEREP, Inc. CARNA Biosciences (Kobe, Japan) performed in vitro kinase activity assays using recombinant catalytic domains and measured phosphorylation of an Src-derived peptide for Flt-3 and phosphatidyl inositol for PI3KCA. Radioligand binding assays for the oxytocin receptor, D4 dopamine receptor, cannabinoid CB2 receptor, and angiotensin type I and II receptors were performed as described previously, as were cell-based activity assays for mGluR 1a, 2, 4, 5, 6, and 8 [60]–[62].

[6] = target: tachykinin receptor-3 (Homo sapiens, UniProt P29371); experiment: Cell-based Ca flux assay (Multispan)
Procedure: as §3

[7] = target: tachykinin receptor-1 (Homo sapiens, UniProt P25103); experiment: Cell-based Ca flux assay, cells stimulated by neurokinin-1 peptide (Multispan); settings: marked with footnote d in Figure 2
Procedure: as §3
Supplementary file pbio.1001712.s001.tif: Figure S1 Dose-response measurements that validate SEA predictions for GPCRs. […]

[8] = system: mgl-2(tm355) mutant C. elegans; experiment: Pharyngeal pumping assay, compound on high-feeding mutant; type: in vivo; settings: percentage of the mutant's pumping rate on DMSO; 10 µM B16, D20, K9, F15, H6; 200 nM L-371257, SB 222200; 2 µM MMPIP, 5-flurox
Procedure: as §1, §2
(§4) The pumping rates are expressed as a percentage of the mutant’s pumping rate on DMSO, the vehicle control. p-values were calculated relative to DMSO treatment of each mutant by one-way ANOVA using Dunnett’s multiple comparison test.

[9] = system: gnrr-3(tm4152) mutant C. elegans; experiment: as above; type: in vivo; settings: percentage of the mutant's pumping rate on DMSO; 10 µM B16, D20, K9, F15, H6; 200 nM L-371257, SB 222200; 2 µM MMPIP, 5-flurox
Procedure: as §1, §2, §4

[10] = system: ver-3(ok891) mutant C. elegans; experiment: as above; type: in vivo; settings: percentage of the mutant's pumping rate on DMSO; 10 µM B16, D20, K9, F15, H6; 200 nM L-371257, SB 222200; 2 µM MMPIP, 5-flurox
Procedure: as §1, §2, §4

[11] = system: gnrr-1(ok238) mutant C. elegans; experiment: as above; type: in vivo; settings: percentage of the mutant's pumping rate on DMSO; 10 µM B16, D20, K9, F15, H6; 200 nM L-371257, SB 222200; 2 µM MMPIP, 5-flurox
Procedure: as §1, §2, §4

[12] = system: ver-2(ok897) mutant C. elegans; experiment: as above; type: in vivo; settings: percentage of the mutant's pumping rate on DMSO; 10 µM B16, D20, K9, F15, H6; 200 nM L-371257, SB 222200; 2 µM MMPIP, 5-flurox
Procedure: as §1, §2, §4

[13] = target: Oxtr; design: method as in PMID 7473590; settings: cited from earlier work

tachykinin receptor-3, sequence (P29371 whole entry): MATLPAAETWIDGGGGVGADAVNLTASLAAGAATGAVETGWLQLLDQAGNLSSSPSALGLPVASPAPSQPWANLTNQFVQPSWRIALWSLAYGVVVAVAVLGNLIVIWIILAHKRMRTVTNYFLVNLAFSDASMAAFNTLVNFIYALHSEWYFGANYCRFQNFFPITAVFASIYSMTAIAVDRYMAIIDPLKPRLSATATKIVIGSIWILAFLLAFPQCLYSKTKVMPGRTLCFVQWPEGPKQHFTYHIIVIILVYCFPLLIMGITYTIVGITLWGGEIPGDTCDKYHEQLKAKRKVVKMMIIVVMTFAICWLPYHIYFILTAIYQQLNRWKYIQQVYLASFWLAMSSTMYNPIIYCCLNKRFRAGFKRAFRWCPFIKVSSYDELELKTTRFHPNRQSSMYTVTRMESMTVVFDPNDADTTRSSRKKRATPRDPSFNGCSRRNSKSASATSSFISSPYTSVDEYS
tachykinin receptor-1, sequence (P25103 whole entry): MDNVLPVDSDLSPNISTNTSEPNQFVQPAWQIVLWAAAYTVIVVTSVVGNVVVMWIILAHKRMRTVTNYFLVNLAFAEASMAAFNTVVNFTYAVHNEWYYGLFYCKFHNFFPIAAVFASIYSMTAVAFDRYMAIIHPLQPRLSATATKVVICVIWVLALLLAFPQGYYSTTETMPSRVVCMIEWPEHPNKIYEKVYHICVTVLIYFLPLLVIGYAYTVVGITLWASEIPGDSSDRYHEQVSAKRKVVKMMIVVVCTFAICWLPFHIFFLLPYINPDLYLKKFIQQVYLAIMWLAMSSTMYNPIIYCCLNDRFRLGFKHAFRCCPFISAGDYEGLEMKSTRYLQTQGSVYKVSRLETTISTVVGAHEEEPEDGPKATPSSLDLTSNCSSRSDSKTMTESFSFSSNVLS
tachykinin receptor-2, sequence (P21452 whole entry): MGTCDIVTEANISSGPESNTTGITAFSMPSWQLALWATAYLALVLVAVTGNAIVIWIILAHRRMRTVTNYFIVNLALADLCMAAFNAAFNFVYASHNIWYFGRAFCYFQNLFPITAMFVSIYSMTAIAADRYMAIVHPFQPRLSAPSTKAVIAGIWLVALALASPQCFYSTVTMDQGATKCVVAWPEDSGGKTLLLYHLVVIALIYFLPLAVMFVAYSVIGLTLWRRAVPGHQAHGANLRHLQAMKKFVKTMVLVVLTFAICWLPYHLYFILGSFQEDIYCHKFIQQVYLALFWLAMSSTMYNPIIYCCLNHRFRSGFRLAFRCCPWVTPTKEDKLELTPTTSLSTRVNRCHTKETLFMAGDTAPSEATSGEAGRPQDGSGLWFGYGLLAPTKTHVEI

SMILES | EC50 [1] [nM] | IC50 [2] [nM] | Nile Red staining [3] | increase in pharyngeal pumping ([1]; 10 µM, cultured 3 d from L1, long-term video (60 s) and short-term manual (10 s) measurements) | exposure time after which the feeding elevating effect was notable ([1]; 10 µM, naïve day 1 gravid adults) [h] | effect on the pharyngeal pumping rate ([1]; wild-type, 10 µM versus 0.1% DMSO) | Pharmacological relationship ([4]; to C. elegans tkr-1 (C38C10.1), homolog of human Tkr-1) | Ki [5] [nM] | Ki [6] [nM] | Ki [7] [nM] | pharyngeal pumping rate, mean [8] [%] | pharyngeal pumping rate, mean [9] [%] | pharyngeal pumping rate, mean [10] [%] | pharyngeal pumping rate, mean [11] [%] | pharyngeal pumping rate, mean [12] [%] | pharyngeal pumping rate, mean ([4]; percentage of the pumping rate of tkr-1(RNAi) animals on DMSO, 10 µM B16, D20, K9, F15, H6, 200 nM L-371257, SB 222200, 2 µM MMPIP, 5-flurox) [%] | Ki [13] [nM]
O=C1Nc2ccc(F)cc2/C1=C1/Nc2ccccc2C1=NO [5-flurox, 5′-fluoroindirubinoxime, reference compound] | 40 | 15 |  |  |  |  |  |  |  |  |  |  |  |  |  |  | 
COc1ccc(OC)c(-c2cc(NC(=O)c3ccccc3C(N)=O)c3ccccc3n2)c1 [H6] |  |  | increased | 7%–12% | ~16 | increased | antagonist | > 10000 | > 10000 | 1900 |  |  |  |  |  |  | 
COc1cc(OC2CCN(C(C)=O)CC2)ccc1C(=O)N1CCC(N2C(=O)OCc3ccccc32)CC1 [L-371257, 1-(1-[4-[(N-acetyl-4-piperidinyl)oxy]-2-methoxybenzoyl]piperidin-4-yl)-4H-3,1-benzoxazin-2(1H)-one, reference compound] | 10 |  |  |  |  |  |  |  |  |  | 105.0 | 108.5 | 94.8 | 99.2 | 100.8 | 109.9 | 4.6
